Results as given in patent US7314644B2, “Extraction and purification method of active constituents from stem of Lonicera japonica thunb., its usage for anti-inflammatory and analgesic drug” (SK Chemicals Co., Ltd., priority 2002, dated 2008).

Key:
Format in all cases: in vivo
[1] = test system: ICR mice; assay: Arachidonic acid induced ear edema test
[2] = test system: ICR mice; assay: Croton oil induced ear edema test
[3] = test system: ICR mice; assay: Acetic acid induced writhing test
[4] = test system: SD rats; assay: Toxicity test (lethal dose, symptoms, weight, autopsy)
Experimental: The active constituents of honeysuckle stem and sweroside, in the amount of 1.0 g/kg, 1.5 g/kg and 2.0 g/kg, were administered through the tail veins of SD rats (body weight: 120 to 170 g, 5 male and female rats for each administration dose, SLC, Japan), respectively, which had been fasted for 4 hours. […] An autopsy was conducted to identify presence of any abnormalities of organs.
The lethal dose of the active constituents of honeysuckle stem and sweroside was both over 5.0 g/kg for oral administration (no dead rats observed), and over 2.0 g/kg for intravenous injection (no dead rats observed).

**Q.** What does the source list for `C=C[C@H]1[C@H](O[C@@H]2O[C@H](CO)[C@@H](O)[C@H](O)[C@H]2O)OC=C2C(=O)OCC[C@H]21` [Sweroside, sweroside]?
**A.** Rate of Inhibition (%) ([1]; Table 10, tail vein, 0.1 mg/kg): 48.3%; Rate of Inhibition (%) ([1]; Table 10, tail vein, 1 mg/kg): 55.1%; Rate of Inhibition (%) ([1]; Table 10, tail vein, 10 mg/kg): 69.1%; Rate of Inhibition (%) ([1]; Table 11, oral administration, 1 mg/kg): 29.0%; Rate of Inhibition (%) ([1]; Table 11, oral administration, 10 mg/kg): 34.7%; Rate of Inhibition (%) ([1]; Table 11, oral administration, 100 mg/kg): 45.7%; Rate of Inhibition (%) ([2]; Table 8, tail vein, 0.1 mg/kg): 49.8%; Rate of Inhibition (%) ([2]; Table 8, tail vein, 1 mg/kg): 56.2%; Rate of Inhibition (%) ([2]; Table 8, tail vein, 10 mg/kg): 65.7%; Rate of Inhibition (%) ([2]; Table 9, oral administration, 1 mg/kg): 31.9%; Rate of Inhibition (%) ([2]; Table 9, oral administration, 10 mg/kg): 43.1%; Rate of Inhibition (%) ([2]; Table 9, oral administration, 100 mg/kg): 57.8%; Rate of Inhibition (%) ([3]; Table 12, tail vein, 0.1 mg/kg): 74.6%; Rate of Inhibition (%) ([3]; Table 12, tail vein, 1 mg/kg): 86.4%; Rate of Inhibition (%) ([3]; Table 12, tail vein, 10 mg/kg): 89.7%; Rate of Inhibition (%) ([3]; Table 13, oral administration, 1 mg/kg): 65.9%; Rate of Inhibition (%) ([3]; Table 13, oral administration, 10 mg/kg): 79.1%; Rate of Inhibition (%) ([3]; Table 13, oral administration, 100 mg/kg): 87.9%; general symptoms ([4]; 2.0 g/kg intravenously injected, restored soon): increased respiration counts and decreased activity for about 10 minutes; autopsy result ([4]; as is the case with the control groups): no abnormalities; weight change ([4]; observed for 2 weeks after administration): no change in weight
